Converted amounts (≈) assume the structure as drawn.
Key:
Shigella flexneri [1] = experiment: Antimicrobial activity of the Compound was tested for minimum inhibitory concentration against Shigella flexneri IID642; format: functional
Bacillus subtilis = experiment: Antimicrobial activity of the Compound was tested for minimum inhibitory concentration against Bacillus subtilis ATCC 6633; format: functional
Candida albicans [2] = experiment: Antimicrobial activity of the Compound was tested for minimum inhibitory concentration against Candida albicans; format: functional
Klebsiella pneumoniae [3] = experiment: Antimicrobial activity of the Compound was tested for minimum inhibitory concentration against Klebsiella pneumoniae 806; format: functional
Klebsiella pneumoniae [4] = experiment: Antimicrobial activity of the Compound was tested for minimum inhibitory concentration against Klebsiella pneumoniae 846(R); format: functional
[5] = test system: Trichophyton interdigitale; experiment: Antimicrobial activity of the Compound was tested for minimum inhibitory concentration against Trichophyton interdigitale; format: functional
Aspergillus fumigatus = experiment: Antimicrobial activity of the Compound was tested for minimum inhibitory concentration against Aspergillus fumigatus 10569; format: functional
Trichophyton rubrum [6] = experiment: Antimicrobial activity of the Compound was tested for minimum inhibitory concentration against Trichophyton rubrum SC; format: functional
Proteus vulgaris = experiment: Antimicrobial activity of the Compound was tested for minimum inhibitory concentration against Proteus vulgaris 1420; format: functional
Enterobacter cloacae = experiment: Antimicrobial activity of the Compound was tested for minimum inhibitory concentration against Enterobacter cloacae 963; format: functional
Mucor mucedo = experiment: Antimicrobial activity of the Compound was tested for minimum inhibitory concentration against Mucor mucedo 14358; format: functional
Staphylococcus aureus [7] = experiment: Antimicrobial activity of the Compound was tested for minimum inhibitory concentration against Staphylococcus aureus 56R; format: functional
Escherichia coli [8] = experiment: Antimicrobial activity of the Compound was tested for minimum inhibitory concentration against Escherichia coli NIHJ; format: functional
Escherichia coli [9] = experiment: Antimicrobial activity of the Compound was tested for minimum inhibitory concentration against Escherichia coli 609; format: functional
Staphylococcus aureus [10] = experiment: Antimicrobial activity of the Compound was tested for minimum inhibitory concentration against Staphylococcus aureus 535 (MRSA); format: functional
Serratia marcescens = experiment: Antimicrobial activity of the Compound was tested for minimum inhibitory concentration against Serratia marcescens 1184; format: functional
Trichophyton benhamiae [11] = experiment: Antimicrobial activity of the Compound was tested for minimum inhibitory concentration against Trichophyton mentagrophytes SC; format: functional, Arthroderma benhamiae
Candida albicans [12] = experiment: Antimicrobial activity of the Compound was tested for minimum inhibitory concentration against Candida albicans SC; format: functional
Trichophyton rubrum [13] = experiment: Antimicrobial activity of the Compound was tested for minimum inhibitory concentration against Trichophyton rubrum; format: functional
Nannizzia gypsea = experiment: Antimicrobial activity of the Compound was tested for minimum inhibitory concentration against Microsporum gypseum 11268; format: functional
Enterococcus faecalis = experiment: Antimicrobial activity of the Compound was tested for minimum inhibitory concentration against Enterococcus faecalis 681; format: functional
Cryptococcus neoformans = experiment: Antimicrobial activity of the Compound was tested for minimum inhibitory concentration against Cryptococcus neoformans 58063; format: functional
Trichophyton benhamiae [14] = experiment: Antimicrobial activity of the Compound was tested for minimum inhibitory concentration against Trichophyton mentagrophytes; format: functional, Arthroderma benhamiae
Staphylococcus aureus [15] = experiment: Antimicrobial activity of the Compound was tested for minimum inhibitory concentration against Staphylococcus aureus 209P; format: functional
Pseudomonas aeruginosa [16] = experiment: Antimicrobial activity of the Compound was tested for minimum inhibitory concentration against Pseudomonas aeruginosa 1001; format: functional
Salmonella enteritidis = experiment: Antimicrobial activity of the Compound was tested for minimum inhibitory concentration against Salmonella enteritidis; format: functional, Salmonella enterica subsp. enterica serovar Enteritidis; settings: Salmonella enterica
Pseudomonas aeruginosa [17] = experiment: Antimicrobial activity of the Compound was tested for minimum inhibitory concentration against Pseudomonas aeruginosa N07; format: functional
Shigella flexneri [18] = experiment: Antimicrobial activity of the Compound was tested for minimum inhibitory concentration against Shigella flexneriII D642; format: functional

In the case of `C#CC#CC#C/C=C/C=C/C(C)O` (configuration not stated), the MIC (Shigella flexneri [1]) is reported as 6.2 µg/mL (≈ 36.4 µM), the MIC (Bacillus subtilis) is reported as 12.5 µg/mL (≈ 73.4 µM) and the MIC (Candida albicans [2]) is reported as 1.5 µg/mL (≈ 8.81 µM). The MIC (Klebsiella pneumoniae [3]) was > 50 µg/mL, the MIC (Klebsiella pneumoniae [4]) was 12.5 µg/mL (≈ 73.4 µM) and the MIC [5] was 0.8 µg/mL (≈ 4.7 µM). The MIC (Aspergillus fumigatus) was 6.2 µg/mL (≈ 36.4 µM), the MIC (Trichophyton rubrum [6]) was 0.4 µg/mL (≈ 2.35 µM) and the MIC (Proteus vulgaris) was 12.5 µg/mL (≈ 73.4 µM). The MIC (Enterobacter cloacae) was > 50 µg/mL, the MIC (Mucor mucedo) was 6.2 µg/mL (≈ 36.4 µM) and the MIC (Staphylococcus aureus [7]) was 0.8 µg/mL (≈ 4.7 µM). The MIC (Escherichia coli [8]) was 25 µg/mL (≈ 147 µM), the MIC (Escherichia coli [9]) was 25 µg/mL (≈ 147 µM) and the MIC (Staphylococcus aureus [10]) was 0.8 µg/mL (≈ 4.7 µM). The MIC (Serratia marcescens) was > 50 µg/mL, the MIC (Trichophyton benhamiae [11]) was 0.4 µg/mL (≈ 2.35 µM) and the MIC (Candida albicans [12]) was 1.5 µg/mL (≈ 8.81 µM). It also gave an MIC (Trichophyton rubrum [13]) of 0.4 µg/mL (≈ 2.35 µM), an MIC (Nannizzia gypsea) of 0.8 µg/mL (≈ 4.7 µM) and an MIC (Enterococcus faecalis) of 12.5 µg/mL (≈ 73.4 µM). It also gave an MIC (Cryptococcus neoformans) of 1.5 µg/mL (≈ 8.81 µM), an MIC (Trichophyton benhamiae [14]) of 0.8 µg/mL (≈ 4.7 µM) and an MIC (Staphylococcus aureus [15]) of 0.8 µg/mL (≈ 4.7 µM). The MIC (Pseudomonas aeruginosa [16]) was > 50 µg/mL, the MIC (Salmonella enteritidis) was 25 µg/mL (≈ 147 µM) and the MIC (Pseudomonas aeruginosa [17]) was > 50 µg/mL.

With `C#CC#CC#CC#CC(O)/C=C/C=C/C` (configuration not stated) the MIC (Bacillus subtilis) was 0.4 µg/mL (≈ 2.06 µM), the MIC (Candida albicans [2]) was 3.1 µg/mL (≈ 16 µM) and the MIC (Klebsiella pneumoniae [3]) was > 25 µg/mL. For the same molecule, the MIC (Klebsiella pneumoniae [4]) was > 25 µg/mL, the MIC [5] was < 0.1 µg/mL and the MIC (Aspergillus fumigatus) was 1.5 µg/mL (≈ 7.72 µM). For the same molecule, the MIC (Trichophyton rubrum [6]) was < 0.02 µg/mL, the MIC (Proteus vulgaris) was 0.8 µg/mL (≈ 4.12 µM) and the MIC (Enterobacter cloacae) was > 25 µg/mL. The MIC (Shigella flexneri [18]) was 0.8 µg/mL (≈ 4.12 µM), the MIC (Mucor mucedo) was 0.2 µg/mL (≈ 1.03 µM) and the MIC (Staphylococcus aureus [7]) was 0.2 µg/mL (≈ 1.03 µM). For the same molecule, the MIC (Escherichia coli [8]) was > 25 µg/mL, the MIC (Escherichia coli [9]) was > 25 µg/mL and the MIC (Staphylococcus aureus [10]) was 0.2 µg/mL (≈ 1.03 µM). For the same molecule, the MIC (Serratia marcescens) was > 25 µg/mL, the MIC (Trichophyton benhamiae [11]) was < 0.02 µg/mL and the MIC (Candida albicans [12]) was 3.1 µg/mL (≈ 16 µM). For the same molecule, the MIC (Trichophyton rubrum [13]) was < 0.1 µg/mL, the MIC (Nannizzia gypsea) was 0.4 µg/mL (≈ 2.06 µM) and the MIC (Enterococcus faecalis) was 3.1 µg/mL (≈ 16 µM). For the same molecule, the MIC (Cryptococcus neoformans) was 0.8 µg/mL (≈ 4.12 µM), the MIC (Trichophyton benhamiae [14]) was < 0.1 µg/mL and the MIC (Staphylococcus aureus [15]) was 0.2 µg/mL (≈ 1.03 µM). For the same molecule, the MIC (Pseudomonas aeruginosa [16]) was > 25 µg/mL, the MIC (Salmonella enteritidis) was > 25 µg/mL and the MIC (Pseudomonas aeruginosa [17]) was > 25 µg/mL.

In the case of `C#CC#CC#CC#C/C=C/C=C/[C@H](C)O`, the MIC (Bacillus subtilis) is reported as 0.8 µg/mL (≈ 4.12 µM), the MIC (Candida albicans [2]) is reported as 1.5 µg/mL (≈ 7.72 µM) and the MIC (Klebsiella pneumoniae [3]) is reported as > 25 µg/mL. The MIC (Klebsiella pneumoniae [4]) was 3.1 µg/mL (≈ 16 µM), the MIC [5] was 0.4 µg/mL (≈ 2.06 µM) and the MIC (Proteus vulgaris) was 1.5 µg/mL (≈ 7.72 µM). For the same molecule, the MIC (Enterobacter cloacae) was > 25 µg/mL, the MIC (Shigella flexneri [18]) was 0.8 µg/mL (≈ 4.12 µM) and the MIC (Staphylococcus aureus [7]) was 0.2 µg/mL (≈ 1.03 µM). It also gave an MIC (Escherichia coli [8]) of 1.5 µg/mL (≈ 7.72 µM), an MIC (Escherichia coli [9]) of 3.1 µg/mL (≈ 16 µM) and an MIC (Staphylococcus aureus [10]) of 0.2 µg/mL (≈ 1.03 µM). It also gave an MIC (Serratia marcescens) of 1.5 µg/mL (≈ 7.72 µM), an MIC (Trichophyton rubrum [13]) of 0.2 µg/mL (≈ 1.03 µM) and an MIC (Enterococcus faecalis) of 6.2 µg/mL (≈ 31.9 µM). For the same molecule, the MIC (Trichophyton benhamiae [14]) was 0.4 µg/mL (≈ 2.06 µM), the MIC (Staphylococcus aureus [15]) was 0.2 µg/mL (≈ 1.03 µM) and the MIC (Pseudomonas aeruginosa [16]) was > 25 µg/mL. The MIC (Salmonella enteritidis) was 3.1 µg/mL (≈ 16 µM) and the MIC (Pseudomonas aeruginosa [17]) was > 25 µg/mL.

`C#CC#CC#CC#C/C=C/C=C/[C@@H](C)O` was tested, and the MIC (Bacillus subtilis) was 0.8 µg/mL (≈ 4.12 µM), the MIC (Candida albicans [2]) was 0.8 µg/mL (≈ 4.12 µM) and the MIC (Klebsiella pneumoniae [3]) was 3.1 µg/mL (≈ 16 µM). For the same molecule, the MIC (Klebsiella pneumoniae [4]) was 0.8 µg/mL (≈ 4.12 µM), the MIC [5] was 0.2 µg/mL (≈ 1.03 µM) and the MIC (Proteus vulgaris) was 0.8 µg/mL (≈ 4.12 µM). For the same molecule, the MIC (Enterobacter cloacae) was > 12.5 µg/mL, the MIC (Shigella flexneri [18]) was 0.4 µg/mL (≈ 2.06 µM) and the MIC (Staphylococcus aureus [7]) was 0.2 µg/mL (≈ 1.03 µM). For the same molecule, the MIC (Escherichia coli [8]) was 0.8 µg/mL (≈ 4.12 µM), the MIC (Escherichia coli [9]) was 1.5 µg/mL (≈ 7.72 µM) and the MIC (Staphylococcus aureus [10]) was 0.1 µg/mL (≈ 0.515 µM). It also gave an MIC (Serratia marcescens) of 0.8 µg/mL (≈ 4.12 µM), an MIC (Trichophyton rubrum [13]) of 0.2 µg/mL (≈ 1.03 µM) and an MIC (Enterococcus faecalis) of 3.1 µg/mL (≈ 16 µM). The MIC (Trichophyton benhamiae [14]) was 0.2 µg/mL (≈ 1.03 µM), the MIC (Staphylococcus aureus [15]) was 0.2 µg/mL (≈ 1.03 µM) and the MIC (Pseudomonas aeruginosa [16]) was > 12.5 µg/mL. The MIC (Salmonella enteritidis) was 0.8 µg/mL (≈ 4.12 µM) and the MIC (Pseudomonas aeruginosa [17]) was > 12.5 µg/mL.

For `C#CC#CC#CC#CC1(O)CCCCC1`, the MIC (Bacillus subtilis) was 6.2 µg/mL (≈ 31.6 µM), the MIC (Candida albicans [2]) was 6.2 µg/mL (≈ 31.6 µM) and the MIC (Klebsiella pneumoniae [3]) was > 25 µg/mL. It also gave an MIC (Klebsiella pneumoniae [4]) of 12.5 µg/mL (≈ 63.7 µM), an MIC [5] of 1.5 µg/mL (≈ 7.64 µM) and an MIC (Proteus vulgaris) of 3.1 µg/mL (≈ 15.8 µM). For the same molecule, the MIC (Enterobacter cloacae) was > 25 µg/mL, the MIC (Shigella flexneri [18]) was 6.2 µg/mL (≈ 31.6 µM) and the MIC (Staphylococcus aureus [7]) was 1.5 µg/mL (≈ 7.64 µM). For the same molecule, the MIC (Escherichia coli [8]) was 25 µg/mL (≈ 127 µM), the MIC (Escherichia coli [9]) was > 25 µg/mL and the MIC (Staphylococcus aureus [10]) was 0.8 µg/mL (≈ 4.08 µM). For the same molecule, the MIC (Serratia marcescens) was > 25 µg/mL, the MIC (Trichophyton rubrum [13]) was 0.8 µg/mL (≈ 4.08 µM) and the MIC (Enterococcus faecalis) was 12.5 µg/mL (≈ 63.7 µM). The MIC (Staphylococcus aureus [15]) was 1.5 µg/mL (≈ 7.64 µM), the MIC (Pseudomonas aeruginosa [16]) was > 25 µg/mL and the MIC (Salmonella enteritidis) was 25 µg/mL (≈ 127 µM). For the same molecule, the MIC (Pseudomonas aeruginosa [17]) was > 25 µg/mL.

`C#CC#CC#CC#C/C=C/C=C/C(C)O` (racemic) gave an MIC (Bacillus subtilis) of 0.8 µg/mL (≈ 4.12 µM), an MIC (Candida albicans [2]) of 1.5 µg/mL (≈ 7.72 µM) and an MIC (Klebsiella pneumoniae [3]) of 1.5 µg/mL (≈ 7.72 µM). It also gave an MIC (Klebsiella pneumoniae [4]) of 0.8 µg/mL (≈ 4.12 µM), an MIC [5] of 0.8 µg/mL (≈ 4.12 µM) and an MIC (Proteus vulgaris) of 0.8 µg/mL (≈ 4.12 µM). The MIC (Enterobacter cloacae) was > 25 µg/mL, the MIC (Shigella flexneri [18]) was 0.8 µg/mL (≈ 4.12 µM) and the MIC (Staphylococcus aureus [7]) was 0.2 µg/mL (≈ 1.03 µM). For the same molecule, the MIC (Escherichia coli [8]) was 0.8 µg/mL (≈ 4.12 µM), the MIC (Escherichia coli [9]) was 0.8 µg/mL (≈ 4.12 µM) and the MIC (Staphylococcus aureus [10]) was 0.2 µg/mL (≈ 1.03 µM). For the same molecule, the MIC (Serratia marcescens) was 0.8 µg/mL (≈ 4.12 µM), the MIC (Trichophyton rubrum [13]) was 0.2 µg/mL (≈ 1.03 µM) and the MIC (Enterococcus faecalis) was 3.1 µg/mL (≈ 16 µM). The MIC (Staphylococcus aureus [15]) was 0.2 µg/mL (≈ 1.03 µM), the MIC (Pseudomonas aeruginosa [16]) was > 25 µg/mL and the MIC (Salmonella enteritidis) was 0.8 µg/mL (≈ 4.12 µM). For the same molecule, the MIC (Pseudomonas aeruginosa [17]) was > 25 µg/mL.

— ChEMBL document CHEMBL1128593, “Chemistry and antimicrobial activity of caryoynencins analogs” (1995)
